{"source": "patent US9695133B2", "about": "“Quinazolinone-based oncogenic-RAS-selective lethal compounds and their use” (THE TRUSTEES OF COLUMBIA UNIVERSITY IN THE CITY OF NEW YORK, priority 2012, dated 2017)", "tested_on": "HT-1080 cells", "assay": "Metabolite profiling (LC-MS/MS) upon erastin treatment", "type": "cell-based, human", "conditions": "5 μg/mL erastin 5 h", "experimental": "2 million HT-1080 cells were seeded in 10 cm culture dishes. […] 4 mL of cold 80% methanol was added to the cell monolayer to extract polar metabolites using a cell scraper. The cell lysate/methanol mixture was transferred to a 15 mL tube and centrifuged at 2,000×g at 4° C. for 10 minutes to pellet debris and proteins. The supernatant was transferred to a new tube and stored at −80° C. for liquid chromatography-mass spectrometry/mass spectrometry (LC-MS/MS) analysis. For lipid extract preparation, 3 mL of cold 100% isopropanol was added to the cell monolayer to scrape out cells. The resulting cell lysate/isopropanol mixture was transferred to a new 15 mL tube and centrifuged at 2,000×g at 4° C. for 10 minutes. The cleared supernatant was transferred to a new tube and stored at −20° C. for LC-MS/MS analysis.\nThe metabolite extract was subjected to LC-MS/MS analysis to determine the quantity of each metabolite in each sample.", "data": [{"smiles": "CCOc1ccccc1-n1c(C(C)N2CCN(C(=O)COc3ccc(Cl)cc3)CC2)nc2ccccc2c1=O", "note": "(stereo not drawn) [erastin]", "values": [{"measurement": "G6P Erastin/DMSO", "result": 1.134}, {"measurement": "G6P log2 (Erastin/DMSO)", "result": 0.181}, {"measurement": "GABA Erastin/DMSO", "result": 1.173}, {"measurement": "GABA log2 (Erastin/DMSO)", "result": 0.2297}, {"measurement": "GDP Erastin/DMSO", "result": 0.8497}, {"measurement": "GDP log2 (Erastin/DMSO)", "result": "−0.235"}, {"measurement": "GMP Erastin/DMSO", "result": 1.066}, {"measurement": "GMP log2 (Erastin/DMSO)", "result": 0.09204}, {"measurement": "IMP Erastin/DMSO", "result": 1.065}, {"measurement": "IMP log2 (Erastin/DMSO)", "result": 0.09035}, {"measurement": "N-carbomoyl-beta-alanine Erastin/DMSO", "result": 0.7958}, {"measurement": "N-carbomoyl-beta-alanine log2 (Erastin/DMSO)", "result": "−0.3296"}, {"measurement": "NAD Erastin/DMSO", "result": 0.9157}, {"measurement": "NAD log2 (Erastin/DMSO)", "result": "−0.127"}, {"measurement": "NADH Erastin/DMSO", "result": 0.8051}, {"measurement": "NADH log2 (Erastin/DMSO)", "result": "−0.3128"}, {"measurement": "NMMA Erastin/DMSO", "result": 0.9886}, {"measurement": "NMMA log2 (Erastin/DMSO)", "result": "−0.01661"}, {"measurement": "OH-phenylpyruvate Erastin/DMSO", "result": 0.8442}, {"measurement": "OH-phenylpyruvate log2 (Erastin/DMSO)", "result": "−0.2443"}, {"measurement": "PEP Erastin/DMSO", "result": 1.147}, {"measurement": "PEP log2 (Erastin/DMSO)", "result": 0.1975}, {"measurement": "SDMA Erastin/DMSO", "result": 0.9505}, {"measurement": "SDMA log2 (Erastin/DMSO)", "result": "−0.07329"}, {"measurement": "UDP Erastin/DMSO", "result": 1.002}, {"measurement": "UDP log2 (Erastin/DMSO)", "result": 0.002894}, {"measurement": "UDP-galactose/UDP-glucose Erastin/DMSO", "result": 0.9003}, {"measurement": "UDP-galactose/UDP-glucose log2 (Erastin/DMSO)", "result": "−0.1516"}, {"measurement": "UDP-glucuronate Erastin/DMSO", "result": 0.9339}, {"measurement": "UDP-glucuronate log2 (Erastin/DMSO)", "result": "−0.09865"}, {"measurement": "UMP Erastin/DMSO", "result": 1.049}, {"measurement": "UMP log2 (Erastin/DMSO)", "result": 0.06891}, {"measurement": "XMP Erastin/DMSO", "result": 0.8599}, {"measurement": "XMP log2 (Erastin/DMSO)", "result": "−0.2178"}, {"measurement": "acetylcholine Erastin/DMSO", "result": 0.8307}, {"measurement": "acetylcholine log2 (Erastin/DMSO)", "result": "−0.2676"}, {"measurement": "aconitate Erastin/DMSO", "result": 1.036}, {"measurement": "aconitate log2 (Erastin/DMSO)", "result": 0.05158}, {"measurement": "adenine Erastin/DMSO", "result": 1.254}, {"measurement": "adenine log2 (Erastin/DMSO)", "result": 0.3261}, {"measurement": "adenosine Erastin/DMSO", "result": 1.376}, {"measurement": "adenosine log2 (Erastin/DMSO)", "result": 0.4605}, {"measurement": "adipate Erastin/DMSO", "result": 1.091}, {"measurement": "adipate log2 (Erastin/DMSO)", "result": 0.1256}, {"measurement": "alanine Erastin/DMSO", "result": 1.061}, {"measurement": "alanine log2 (Erastin/DMSO)", "result": 0.0857}, {"measurement": "allantoin Erastin/DMSO", "result": 0.9512}, {"measurement": "allantoin log2 (Erastin/DMSO)", "result": "−0.07213"}, {"measurement": "alpha-glycerophosphate Erastin/DMSO", "result": 0.7556}, {"measurement": "alpha-glycerophosphate log2 (Erastin/DMSO)", "result": "−0.4043"}, {"measurement": "alpha-glycerophosphocholine Erastin/DMSO", "result": 0.2194}, {"measurement": "alpha-glycerophosphocholine log2 (Erastin/DMSO)", "result": "−2.188"}, {"measurement": "alpha-ketoglutarate Erastin/DMSO", "result": 0.9867}, {"measurement": "alpha-ketoglutarate log2 (Erastin/DMSO)", "result": "−0.01926"}, {"measurement": "arginine Erastin/DMSO", "result": 0.9866}, {"measurement": "arginine log2 (Erastin/DMSO)", "result": "−0.01943"}, {"measurement": "ascorbate Erastin/DMSO", "result": 1.196}, {"measurement": "ascorbate log2 (Erastin/DMSO)", "result": 0.2586}, {"measurement": "asparagine Erastin/DMSO", "result": 1.069}, {"measurement": "asparagine log2 (Erastin/DMSO)", "result": 0.09662}, {"measurement": "aspartate Erastin/DMSO", "result": 1.017}, {"measurement": "aspartate log2 (Erastin/DMSO)", "result": 0.02452}, {"measurement": "betaine Erastin/DMSO", "result": 0.9528}, {"measurement": "betaine log2 (Erastin/DMSO)", "result": "−0.06976"}, {"measurement": "cAMP Erastin/DMSO", "result": 1.266}, {"measurement": "cAMP log2 (Erastin/DMSO)", "result": 0.3404}, {"measurement": "carnitine Erastin/DMSO", "result": 0.802}, {"measurement": "carnitine log2 (Erastin/DMSO)", "result": "−0.3183"}, {"measurement": "carnosine Erastin/DMSO", "result": 0.9657}, {"measurement": "carnosine log2 (Erastin/DMSO)", "result": "−0.0503"}, {"measurement": "choline Erastin/DMSO", "result": 0.8139}, {"measurement": "choline log2 (Erastin/DMSO)", "result": "−0.2971"}, {"measurement": "cis/trans hydroxyproline Erastin/DMSO", "result": 1.099}, {"measurement": "cis/trans hydroxyproline log2 (Erastin/DMSO)", "result": 0.1366}, {"measurement": "citrate Erastin/DMSO", "result": 0.974}, {"measurement": "citrate log2 (Erastin/DMSO)", "result": "−0.03805"}, {"measurement": "citrulline Erastin/DMSO", "result": 1.036}, {"measurement": "citrulline log2 (Erastin/DMSO)", "result": 0.05057}, {"measurement": "cotinine Erastin/DMSO", "result": 0.9037}, {"measurement": "cotinine log2 (Erastin/DMSO)", "result": "−0.146"}, {"measurement": "creatine Erastin/DMSO", "result": 0.8675}, {"measurement": "creatine log2 (Erastin/DMSO)", "result": "−0.205"}, {"measurement": "creatinine Erastin/DMSO", "result": 0.972}, {"measurement": "creatinine log2 (Erastin/DMSO)", "result": "−0.04091"}, {"measurement": "cystamine Erastin/DMSO", "result": 1.09}, {"measurement": "cystamine log2 (Erastin/DMSO)", "result": 0.1248}, {"measurement": "cystathionine Erastin/DMSO", "result": 1.263}, {"measurement": "cystathionine log2 (Erastin/DMSO)", "result": 0.3368}, {"measurement": "cytidine Erastin/DMSO", "result": 6.079}, {"measurement": "cytidine log2 (Erastin/DMSO)", "result": 2.604}, {"measurement": "cytosine Erastin/DMSO", "result": 0.8863}, {"measurement": "cytosine log2 (Erastin/DMSO)", "result": "−0.1741"}, {"measurement": "dCMP Erastin/DMSO", "result": 0.9184}, {"measurement": "dCMP log2 (Erastin/DMSO)", "result": "−0.1228"}, {"measurement": "dGMP Erastin/DMSO", "result": 1.052}, {"measurement": "dGMP log2 (Erastin/DMSO)", "result": 0.07275}, {"measurement": "dTMP Erastin/DMSO", "result": 0.6985}, {"measurement": "dTMP log2 (Erastin/DMSO)", "result": "−0.5178"}, {"measurement": "dUMP Erastin/DMSO", "result": 0.6787}, {"measurement": "dUMP log2 (Erastin/DMSO)", "result": "−0.5592"}, {"measurement": "dimethylglycine Erastin/DMSO", "result": 0.9338}, {"measurement": "dimethylglycine log2 (Erastin/DMSO)", "result": "−0.09885"}, {"measurement": "folate Erastin/DMSO", "result": 1.032}, {"measurement": "folate log2 (Erastin/DMSO)", "result": 0.04552}, {"measurement": "fumarate Erastin/DMSO", "result": 0.9822}, {"measurement": "fumarate log2 (Erastin/DMSO)", "result": "−0.02598"}, {"measurement": "glucose Erastin/DMSO", "result": 0.9717}, {"measurement": "glucose log2 (Erastin/DMSO)", "result": "−0.04147"}, {"measurement": "glucose/fructose/galactose Erastin/DMSO", "result": 1.011}, {"measurement": "glucose/fructose/galactose log2 (Erastin/DMSO)", "result": 0.01526}, {"measurement": "glucuronate Erastin/DMSO", "result": 0.61}, {"measurement": "glucuronate log2 (Erastin/DMSO)", "result": "−0.7132"}, {"measurement": "glutamate Erastin/DMSO", "result": 1.019}, {"measurement": "glutamate log2 (Erastin/DMSO)", "result": 0.02762}, {"measurement": "glutamine Erastin/DMSO", "result": 1.015}, {"measurement": "glutamine log2 (Erastin/DMSO)", "result": 0.02096}, {"measurement": "glutathione oxidized Erastin/DMSO", "result": 0.3235}, {"measurement": "glutathione oxidized log2 (Erastin/DMSO)", "result": "−1.628"}, {"measurement": "glutathione reduced Erastin/DMSO", "result": 0.007019}, {"measurement": "glutathione reduced log2 (Erastin/DMSO)", "result": "−7.154"}, {"measurement": "glyceraldehyde-3-phosphate Erastin/DMSO", "result": 1.192}, {"measurement": "glyceraldehyde-3-phosphate log2 (Erastin/DMSO)", "result": 0.2529}, {"measurement": "glycerol Erastin/DMSO", "result": 1.058}, {"measurement": "glycerol log2 (Erastin/DMSO)", "result": 0.08176}, {"measurement": "glycine Erastin/DMSO", "result": 0.9723}, {"measurement": "glycine log2 (Erastin/DMSO)", "result": "−0.04055"}, {"measurement": "glycochenodeoxycholate Erastin/DMSO", "result": 1.067}, {"measurement": "glycochenodeoxycholate log2 (Erastin/DMSO)", "result": 0.09335}, {"measurement": "glycocholate Erastin/DMSO", "result": 0.9975}, {"measurement": "glycocholate log2 (Erastin/DMSO)", "result": "−0.003654"}, {"measurement": "glycodeoxycholate Erastin/DMSO", "result": 1.054}, {"measurement": "glycodeoxycholate log2 (Erastin/DMSO)", "result": 0.07552}]}]}
